The values that follow come from patent US6916927B2, “Pyrazolopyrimidinones which inhibit type 5 cyclic guanosine 3′,5′-monophosphate phosphodiesterase (cGMP-PDE5) for the treatment of sexual dysfunction” (Pfizer Inc., priority 1997, dated 2005).

The target of this test is cGMP-specific PDE (PDE5) (UniProt O76074). Nature of the test: In vitro PDE inhibitory activity (IC50) against cGMP PDE5. The format is biochemical, human or rabbit. The settings on record: in vitro activities as inhibitors of cGMP PDE5. The protocol: In vitro PDE inhibitory activities against cyclic guanosine 3′,5′-monophosphate (cGMP) and cyclic adenosine 3′,5′-monophosphate (cAMP) phosphodiesterases were determined by measurement of their IC50 values (the concentration of compound required for 50% inhibition of enzyme activity).
The required PDE enzymes were isolated from a variety of sources, including human corpus cavernosum, human and rabbit platelets, human cardiac ventricle, human skeletal muscle and bovine retina, essentially by the method of W. J. Thompson and M. M. Appleman (Biochem., 1971, 10, 311). In particular, the cGMP-specific PDE (PDE5) and the cGMP-inhibited cAMP PDE (PDE3) were obtained from human corpus cavernosum tissue, human platelets or rabbit platelets; the cGMP-stimulated PDE (PDE2) was obtained from human corpus cavernosum; the calcium/calmodulin (Ca/CAM)-dependent PDE (PDE1) from human cardiac ventricle; the cAMP-specific PDE (PDE^4) from human skeletal muscle; and the photoreceptor PDE (PDE6) from bovine retina.
Assays were performed using a modification of the “batch” method of W. J. Thompson et al. (Biochem., 1979, 18, 5228).
In general, IC50 refers to the concentration needed to halve the response being measured. A low value points to greater potency in that assay. For `CCCOc1ccc(S(=O)(=O)N2CCN(CCO)CC2)cc1-c1nc2c(CCC)nn(Cc3ccccn3)c2c(=O)[nH]1` [Example 4, 5-{5-[4-(2-Hydroxyethyl)piperazin-1-ylsulphonyl]-2-n-propoxyphenyl}-3-n-propyl-1-(pyridin-2-yl)methyl-1,6-dihydro-7H-pyrazolo[4,3-d]pyrimidin-7-one], it took 2.2 nM to reach half-maximal inhibition (IC50).

The molecule `CCCOc1ccc(S(=O)(=O)N2CCN(CCO)CC2)cc1-c1nc2c(CCC)n(Cc3ccccn3)nc2c(=O)[nH]1` [Example 7, 5-{5-[4-(2-Hydroxyethyl)piperazin-1-ylsulphonyl]-2-n-propoxyphenyl}-3-n-propyl-2-(pyridin-2-yl)methyl-2,6-dihydro-7H-pyrazolo[4,3-d]pyrimidin-7-one] displayed an IC50 of 2.6 nM.

As to `CCCOc1ccc(S(=O)(=O)N2CCN(C)CC2)cc1-c1nc2c(CCC)nn(Cc3ncnn3C)c2c(=O)[nH]1` [Example 31, 5-[5-(4-Methylpiperazin-1-ylsulphonyl)-2-n-propoxyphenyl]-1(1-methyl-1,2,4-triazol-5-yl)methyl-3-n-propyl-1,6-dihydro-7H-pyrazolo-[4,3-d]pyrimidin-7-one], the IC50 turned out to be 4 nM.

Turning to `CCCc1nn(Cc2ccccc2)c2c(=O)[nH]c(-c3cc(S(=O)(=O)N4CCN(C)CC4)ccc3OCC)nc12` [Example 41, 1-Benzyl-5-[2-ethoxy-5-(4-methylpiperazin-1-ylsulphonyl)phenyl]-3-n-propyl-1,6-dihydro-7H-pyrazolo[4,3-d]pyrimidin-7-one], the IC50 came out at 3.9 nM.

The molecule `CCCOc1ccc(S(=O)(=O)N2CCN(C)CC2)cc1-c1nc2c(CCC)n(Cc3ncnn3C)nc2c(=O)[nH]1` [Example 77, 5-[5-(4-Methylpiperazin-1-ylsulphonyl)-2-n-propoxyphenyl]-2-(1-methyl-1,2,4-triazol-5-yl)methyl-3-n-propyl-2,6-dihydro-7H-pyrazolo[4,3-d]pyrimidin-7-one] displayed a concentration for half-maximal inhibition (IC50) of 7.1 nM.

For `CCCc1c2nc(-c3cc(S(=O)(=O)N4CCN(C)CC4)ccc3OCC)[nH]c(=O)c2nn1Cc1ccccc1` [Example 87, 2-Benzyl-5-[2-ethoxy-5-(4-methylpiperazin-1-ylsulphonyl)phenyl]-3-n-propyl-2,6-dihydro-7H-pyrazolo[4,3-d]pyrimidin-7-one], the IC50 turned out to be 12 nM.

On to `CCCOc1ccc(S(=O)(=O)N2CCN(CC)CC2)cc1-c1nc2c(CCC)nn(CCN3CCOCC3)c2c(=O)[nH]1` [Example 100, 5-[5-(4-Ethylpiperazin-1-ylsulphonyl)-2-n-propoxyphenyl]-1-(2-morpholin-4-ylethyl)-3-n-propyl-1,6-dihydro-7H-pyrazolo[4,3-d]pyrimidin-7-one], for which the IC50 was 1.9 nM.

For the molecule `CCCOc1ccc(S(=O)(=O)N2CCN(CC)CC2)cc1-c1nc2c(CCC)n(CCN3CCOCC3)nc2c(=O)[nH]1` [Example 108, 5-[5-(4-Ethylpiperazin-1-ylsulphonyl)-2-n-propoxyphenyl]-2-(2-morphin-4-ylethyl)-3-n-propyl-2,6-dihydro-7H-pyrazolo[4,3-d]pyrimidin-7-one], the IC50 worked out at 2.1 nM.

The molecule `CCCOc1ccc(S(=O)(=O)N2CCN(CC)CC2)cc1-c1nc2c(CCC)n(-c3ccccc3NS(C)(=O)=O)nc2c(=O)[nH]1` [Example 117, 5-[5-(4-Ethylpiperazin-1-ylsulphonyl)-2-n-propoxyphenyl]-2-(2-methanesulphonamidophenyl)-3-n-propyl-2,6-dihydro-7H-pyrazolo[4,3-d]-pyrimidin-7-one] registered an IC50 of 3.2 nM.

For `CCCOc1ccc(S(=O)(=O)N2CCN(C)CC2)cc1-c1nc2c(CCC)n(-c3ncccn3)nc2c(=O)[nH]1` [Example 125, 5-[5-(4-Methylpipierazin-1-ylsulphonyl)-2-n-propoxyphenyl]-3-n-propyl-2-pyrimidin-2-yl-2,6-dihydro-7H-pyrazolo[4,3-d]pyrimidin-7-one], 2.8 nM corresponded to half-maximal inhibition (IC50).

As to `CCCc1c2nc(-c3cc(S(=O)(=O)N4CCN(C)CC4)ccc3OCC)[nH]c(=O)c2nn1CC1CCC1` [Example 126, 2-Cyclobutylmethyl-5-[2-ethoxy-5-(4-methylpiperazin-1-ylsulphonyl)phenyl]-3-n-propyl-2,6-dihydro-7H-pyrazolo[4,3-d]pyrimidin-7-one], half-maximal inhibition (IC50) was put at 9.2 nM.

`CCCOc1ccc(S(=O)(=O)N2CCN(CC)CC2)cc1-c1nc2c(CCC)n(Cc3cccc[n+]3[O-])nc2c(=O)[nH]1` [Example 129, 5-[5-(4-Ethylpiperazin-1-ylsulphonyl)-2-n-propoxyphenyl]-2-(1-oxidopyridin-2-yl)methyl-3-n-propyl-2,6-dihydyro-7H-pyrazolo[4,3-d]pyrimidin-7-one] registered an IC50 of 6.5 nM.
